# Test results published in patent US20120208781A1, “AMINOGLYCOSIDE DOSING REGIMENS” (Achaogen, Inc., priority 2009, published 2012).
# “And” between values parts separate entries of the source, which are not always exact repeats. Equal values may be shown once. Read-outs that look alike come from different tables or passages of the source.
# What was measured:
# [1] = Pharmacokinetics of Compound 1 after single bolus IV injection in rats; type: in vivo, Sprague Dawley rats; conditions: for half-life / AUC(0-inf) / C0 / clearance / MRT inf / Vd: Sprague Dawley, rat, plasma, 10 mg/kg
# Method: Male CD-1 mice, Sprague Dawley rats, and beagle dogs were administered Compound 1 intravenously. Compound 1 was preformulated as a sterile isotonic solution of 10 mg/mL in PBS. Specifically, male CD-1 mice were administered a single bolus IV injection of the Compound at 10 mg/kg, via a bolus IV injection into the tail vein. Two blood samples per mouse were collected by retro-orbital puncture into tubes containing the anticoagulant K2EDTA prior to dosing and at 0.033, 0.083, 0.25, 0.5, 1 and 24 hours. Rats were administered Compound 1 at 10 mg/kg via a bolus IV injection into the tail vein. Twelve blood samples per rat were collected via a jugular vein cannula into tubes containing the anticoagulant K2EDTA at various timepoints (i.e., 0.033, 0.083, 0.25, 0.5, 1, 2, 4, 6, 8, 10, 12, and 24 hours). Male beagle dogs were administered Compound 1 at 10 mg/kg through a temporary percutaneous catheter placed in a peripheral vein. Whole blood samples (0.5 mL) were collected from each dog prior to dosing and at 0.033, 0.083, 0.25, 0.5, 1, 2, 4, 6, 8, and 24 hours via direct venipuncture of a jugular or cephalic vein into tubes containing the anticoagulant K2EDTA. A sparse sampling method was employed to conserve animals and provide the best data possible from fewer mice. Samples were centrifuged, and plasma was collected and transferred into a new tube and frozen at −80° C. until they were analyzed.
# Blood, urine, and kidney samples collected over 24 hours were analyzed for Compound 1 levels using LC-MS/MS. Method performance was acceptable in the concentration ranges necessary to determine plasma levels. Compound 1 plasma concentrations were determined by comparing Compound 1 concentration in the sample to a standard curve derived from LC-MS/MS measurements of the analyte. The standard curve fit was linear with a 1/x^2 weighting.
# (§1) Bioanalytical data analyses were carried out using Analyst software (version 1.4.1, Applied Biosystems, Toronto, ON, Canada). […] PK parameters were determined by noncompartmental analysis using WinNonLin. Plasma protein binding was determined using equilibrium dialysis. In vitro stability was determined using commercially available plasma, microsomes and hepatocytes.
# [2] = Phase 1 study 15 mg/kg/day once daily for five days: safety, BUN and Cr; type: in vivo, human; conditions: healthy subjects
# Method: An additional randomized, double-blind, placebo-controlled study was performed to assess the safety and pharmacokinetics of Compound 1 following IV administration to healthy adult volunteers according to a high dose, short course regimen of 15 mg/kg/day of Compound 1 administered once daily for five days. Compound 1 was formulated as a sterile solution at a concentration of 50 mg/mL in 10 mL glass vials for intravenous (IV) administration (“Compound 1 Injection”). Eight healthy subjects were randomized to receive either Compound 1 Injection or placebo administered IV by 10 minute infusion daily for five days. Seven subjects received 5 doses and one received 3 doses (early withdrawal for personal reasons).
# BUN and creatine (Cr) were assessed daily for each of the five days prior to dosing and at day 5 post-dosing to assess renal function following this high dose, short course regimen.
# K. pneumoniae (KP) = assay: MIC, broth microdilution, Brooklyn hospital isolates: K. pneumoniae; type: cell-based; conditions: Klebsiella pneumoniae; KP (n = 71)
# Method: In another study, the activity of Compound 1 against a collection of contemporary Gram-negative bacteria was determined. Unique patient isolates of P. aeruginosa (PA), A. baumannii (AB), K. pneumoniae (KP), E. coli (EC), and Enterobacter spp. (EB) from prior surveys at 16 Brooklyn, N.Y. hospitals were selected based on resistance patterns. The majority of isolates were fingerprinted by automated ribotyping. MICs were performed by broth microdilution. PCR was used to identify aminoglycoside-modifying enzymes (AMEs) in AB and KP and the KPC gene in Enterobacteriaceae (EN). The expression of the efflux genes mexA, C, E and X in PA, and adeB in AB was assessed by real-time RT-PCR.
# [3] = Plasma protein binding by equilibrium dialysis; type: in vitro ADME
# Method: as §1
# [4] = GLP 14-day repeat-dose safety study in rat; type: in vivo
# Text: The Food and Drug Administration (FDA) has provided general guidance for estimating the maximum recommended starting dose (MRSD) for initial human clinical trials. The guidance states that the MRSD must be derived from the no observable adverse effect level (NOAEL) obtained in Good Laboratory Practice (GLP) nonclinical animal safety studies. The NOAEL for Compound 1 has been determined in GLP 14-day repeat-dose safety studies in both rat and dog. Estimation of the human equivalent dose (HED) at the NOAEL is based on both a surface area conversion factor (SACF) and the data from these studies. Based on this standard methodology, the HED for the predicted NOAEL in each species has been determined and is presented in Table 18.
# [5] = iv, 10 mg/kg single bolus IV, Mean ± SD
# [6] = iv, 10 mg/kg single bolus IV, Rat 101
# [7] = iv, 10 mg/kg single bolus IV, Rat 102
# [8] = iv, 10 mg/kg single bolus IV, Rat 103
# [9] = 15 mg/kg/day IV once daily for five days, one line per Subject ID, 15 mg/kg/day
smiles,measurement,setting,value
"CN[C@@H]1[C@@H](O)[C@@H](O[C@@H]2[C@@H](O)[C@H](O[C@H]3OC(CNCCO)=CC[C@H]3N)[C@@H](N)C[C@H]2NC(=O)[C@@H](O)CCN)OC[C@]1(C)O [Compound 1, 6′-(2-Hydroxy-ethyl)-1-(4-amino-2(S)-hydroxy-butyryl)-sisomicin]",tissue distribution,[1],distributed to rat kidneys
same,half-life,"[1]; intravenous, read-out: t½ (renal clearance) (converted)",~60 min
same,AUC(0-inf),[1]; [5],15700 ng·h/mL
same,C0,[1]; [5],37500 ng/mL
same,clearance,[1]; [5],10.8 mL/min/kg
same,MRT inf,"[1]; iv, 10 mg/kg single bolus IV, Mean ± SD, read-out: MRT0-∞",42 min
same,Vd,"[1]; iv, 10 mg/kg single bolus IV, Mean ± SD, read-out: Vss",0.437 L/kg
same,half-life,"[1]; iv, 10 mg/kg single bolus IV, Mean ± SD, read-out: t1/2 (converted)",56.4 min
same,AUC(0-inf),[1]; [6],13800 ng·h/mL
same,C0,[1]; [6],41700 ng/mL
same,clearance,[1]; [6],12.1 mL/min/kg
same,MRT inf,"[1]; iv, 10 mg/kg single bolus IV, Rat 101, read-out: MRT0-∞",36 min
same,Vd,"[1]; iv, 10 mg/kg single bolus IV, Rat 101, read-out: Vss",0.403 L/kg
same,half-life,"[1]; iv, 10 mg/kg single bolus IV, Rat 101, read-out: t1/2 (converted)",57 min
same,AUC(0-inf),[1]; [7],18500 ng·h/mL
same,C0,[1]; [7],42200 ng/mL
same,clearance,[1]; [7],9.02 mL/min/kg
same,MRT inf,"[1]; iv, 10 mg/kg single bolus IV, Rat 102, read-out: MRT0-∞",48 min
same,Vd,"[1]; iv, 10 mg/kg single bolus IV, Rat 102, read-out: Vss",0.434 L/kg
same,half-life,"[1]; iv, 10 mg/kg single bolus IV, Rat 102, read-out: t1/2 (converted)",55.8 min
same,AUC(0-inf),[1]; [8],14800 ng·h/mL
same,C0,[1]; [8],28800 ng/mL
same,clearance,[1]; [8],11.3 mL/min/kg
same,MRT inf,"[1]; iv, 10 mg/kg single bolus IV, Rat 103, read-out: MRT0-∞",42 min
same,Vd,"[1]; iv, 10 mg/kg single bolus IV, Rat 103, read-out: Vss",0.473 L/kg
same,half-life,"[1]; iv, 10 mg/kg single bolus IV, Rat 103, read-out: t1/2 (converted)",55.8 min
same,Cmax and exposure (AUC) dose linearity,[1]; intravenous dosing,dose linear to 75 mg/kg
same,severity of adverse events,"[2]; 15 mg/kg/day IV 10 minute infusion, five days",mild to moderate
same,"Serum Creatine, Pre-dose","[2]; 15 mg/kg/day IV once daily for five days, fifth pre-dose column, one line per Subject ID, 15 mg/kg/day",0.7 mg/dL (2×) and 0.8 mg/dL and 1.2 mg/dL (2×) and 1.1 mg/dL and 1.0 mg/dL
same,"BUN, Post-dose 5",[2]; [9],13 mg/dL (3×) and 14 mg/dL and 9 mg/dL and 20 mg/dL and 15 mg/dL
same,"BUN, Pre-dose 1",[2]; [9],9 mg/dL (2×) and 10 mg/dL and 13 mg/dL and 5 mg/dL and 15 mg/dL and 19 mg/dL and 14 mg/dL
same,"BUN, Pre-dose 2",[2]; [9],18 mg/dL and 16 mg/dL and 19 mg/dL and 17 mg/dL (2×) and 8 mg/dL and 20 mg/dL and 22 mg/dL
same,"BUN, Pre-dose 3",[2]; [9],13 mg/dL and 18 mg/dL (2×) and 19 mg/dL and 17 mg/dL and 9 mg/dL and 15 mg/dL and 14 mg/dL
same,"BUN, Pre-dose 4",[2]; [9],13 mg/dL and 14 mg/dL (2×) and 12 mg/dL and 8 mg/dL and 17 mg/dL and 19 mg/dL and 16 mg/dL
same,"BUN, Pre-dose 5",[2]; [9],16 mg/dL (3×) and 13 mg/dL and 14 mg/dL and 11 mg/dL and 15 mg/dL
same,"Serum Creatine, Post-dose 5",[2]; [9],0.6 mg/dL (2×) and 1.0 mg/dL and 0.7 mg/dL and 1.1 mg/dL and 0.9 mg/dL (2×)
same,"Serum Creatine, Pre-dose 1",[2]; [9],0.7 mg/dL (2×) and 0.6 mg/dL (2×) and 0.9 mg/dL (2×) and 1.2 mg/dL and 1.0 mg/dL
same,"Serum Creatine, Pre-dose 2",[2]; [9],0.7 mg/dL and 0.6 mg/dL (2×) and 0.9 mg/dL (2×) and 1.1 mg/dL (2×) and 1.3 mg/dL
same,"Serum Creatine, Pre-dose 3",[2]; [9],0.6 mg/dL (3×) and 0.7 mg/dL and 1.0 mg/dL and 1.1 mg/dL and 0.9 mg/dL and 0.8 mg/dL
same,"Serum Creatine, Pre-dose 4",[2]; [9],0.6 mg/dL (4×) and 1.0 mg/dL and 1.2 mg/dL and 0.9 mg/dL (2×)
same,changes in BUN or Cr at day 5 post-dosing,"[2]; 15 mg/kg/day IV, five days",no substantial changes in either BUN or Cr
same,tolerability,"[2]; 15 mg/kg/day IV, five days",well-tolerated
same,ototoxicity or nephrotoxicity,"[2]; 15 mg/kg/day IV, five days, through the treatment period",No evidence of ototoxicity or nephrotoxicity
same,MIC50,K. pneumoniae (KP),0.5 µg/mL
same,MIC90,K. pneumoniae (KP),1 µg/mL
same,fraction unbound,[3],> 0.8
same,HED,"[4]; from rat NOAEL, SACF 6.2",1.3 mg/kg
same,new toxicities,[4]; nonclinical GLP safety studies in rats,no new toxicities apart from those already known to the class
same,NOAEL at 14 days,"[4]; rat, in vivo",8 mg/kg
